According to patent US9771563B2, “Chemical approaches for generation of induced pluripotent stem cells” (The Scripps Research Institute, priority 2008, dated 2017):

Columns and labels:
OG2+/-/ROSA26+/- MEFs = assay: Assessment of SOX2 expression after compound treatment (RT-PCR); format: cell-based, mouse; settings: 2 μM BayK, 1 μM BIX, 6 days
Method: OG2^+/−/ROSA26^+/− MEFs were plated onto 6-well plate at a density of 3.4×10^4 cells per well. On the following day, the cells were treated with DMSO, 1 μM BIX, 2 μM BayK, and a combination of both, in triplicate, for 6 days. The media was refreshed at day 3. RNA from each well was then isolated using the RNAeasy Mini Kit (Quiagen). Reverse transcription of the RNA was performed using the iScript™ cDNA Synthesis Kit (BioRad, Hercules, Calif.). Amplification of endogenous Sox2 was done using primers previously published (Takahashi, K., Okita, K., Nakagawa, M., and Yamanaka, S. (2007). Induction of pluripotent stem cells from fibroblast cultures. Nat Protoc 2, 3081-3089; Takahashi, K., and Yamanaka, S. (2006). Induction of pluripotent stem cells from mouse embryonic and adult fibroblast cultures by defined factors. Cell 126, 663-676) with Platinum PCR SuperMix (Invitrogen) on a Mastercycler® ep gradient PCR machine (Eppendorf).

mES R1 cells = assay: Proliferation assay; format: cell-based, mouse; settings: 2 μM BayK, 1 μM BIX; 15, 24, 48 hours; vs DMSO
Method: mES R1 cells were plated onto gelatin-coated 6-well plates at a density of 2×10^5 cells/well in complete mES cell media. Upon cell attachment, app. 12 hours, the cells were treated either with DMSO, 1 μM BIX, 2 μM BayK, and a combination of both, in triplicate. At 15, 24 and 48 hours, the cells were detached using trypsin, and counted using a hemocytometer. Trypan blue (Sigma-Aldrich, St. Louis, Mo.) was used for dead cell exclusion.

[1] = test system: mouse embryonic fibroblasts (129 or OG2 MEFs); assay: Screen for iPSC generation from MEFs transduced with Oct4/Klf4 (OK); format: cell-based
Method: Unmodified MEFs derived from E13-14 embryos of the 129 mice were used for the initial screen. MEFs were plated on Matrigel at 3.5×10^4 cells/well of a 6-well plate and transduced with OK (retroviral vectors expressing Oct4 and Klf4) alone. Within 14-21 days, treated cells were assessed for the appearance of colonies that had the characteristic embryonic stem cell (ESC) colony morphology and were positive for the pluripotency marker alkaline phosphatase (ALP). Such OK-transduced cells generated only a few small non-compact colonies, which were weakly positive for ALP expression. These colonies initially appeared within 21 days after viral transduction and were difficult to expand. Therefore, such assay system offered a clean background for the identification of small molecules having desirable reprogramming inducing activity. Using this system, compounds from a library of around 2000 known small molecules (see Experimental Procedures below) were screened and were identified as hits when they induced the appearance of ESC colonies that were strongly positive for ALP within 14-21 days after treatment. This image-based method provided a more accurate assessment of reprogramming as compared to homogenous reporter-based assay. BIX appeared to have the strongest effect with reproducible induction of more than 1-2 compact ESC-like colonies with high ALP expression. We observed that when MEFs were treated with BIX after OK viral transduction, compact colonies with strong ALP expression could be readily detected within approximately 14-21 days. These cells were also positive for Nanog, Oct4 and SSEA-1 expression. […] However, the reprogramming efficiency in MEFs transduced with OK and treated with BIX was still low, about 2 colonies/3.5×10^4 cells, in comparison to the four factor-induced reprogramming of MEFs or the OK/BIX NPC reprogramming (Shi, Y. et al., Cell Stem Cell, 2:525-528 (2008)). Therefore, we conducted a second screen using a similar protocol, but where BIX was added to the basal media after OK viral transduction. This provided a more permissive platform to identify new small molecules that could further improve reprogramming efficiency. More importantly, this second screen could facilitate discovery of small molecules that impact reprogramming in a more specific manner, for example by acting on signal transduction pathways rather than on histone or DNA modifying enzymes. In this second screen, we again assayed the library of around 2000 known small molecules (see Experimental Procedures), and confirmed two compounds that were able to act in a synergistic manner with BIX to improve reprogramming based on the criteria of the screen. […] Therefore, RG108 was not pursued further for this study. Instead, we focused our phenotypic and functional characterization on another small molecule that was identified in the second screen, BayK, an L-calcium channel agonist. […] Therefore, BayK might play a more specific role in the reprogramming process. When 129 MEFs were transduced with empty retrovirus (negative control); no colonies observed. When 129 MEFs were transduced with OK without small molecules; few small flattened colonies with weak ALP expression present. […] When OK-transduced MEFs were treated with BIX in combination with BayK, a significant increase in the number of ALP^+ colonies that closely resemble the mESC morphology could be observed (˜7 colonies) as compared to OK-transduced MEFs treated with BIX alone (˜2 colonies).
Primary 12952/SvPasCrlf (primary screen) or ROSA26^+/−/OG2^+/− (secondary screen) MEFs were plated onto Matrigel (1:50; BD Biosciences, Bedford, Mass.) coated dishes at a density of 3.5×10^4 cells per well of a 6-well plate. Twenty-four hours later, these cells were transduced overnight with defined retroviruses at 37° C., 5% CO2. […] (all products were from Invitrogen, Carlsbad, Calif., except where mentioned). […]

cellular reprogramming = assay: Enhancement of cellular reprogramming by nuclear receptor ligands; format: cell-based
[2] = test system: human primary fibroblasts (CRL2097 or BJ); assay: Reprogramming of human primary fibroblasts transduced with 4TFs; format: cell-based
Method: We tested known inhibitors of the TGFβ receptor and MEK on 1×10^4 [Feng, B. et al., Cell Stem Cell 4, 301-12 (2009)] human primary fibroblasts (CRL2097 or BJ) that were retrovirally transduced with the 4TFs (Oct4, Klf4, Sox2 and c-Myc), for their effects on reprogramming kinetics and efficiency. On day 7 (D7) post-infection, the compounds were added, individually or in combinations, and the cultures were examined for iPSCs over the next 1-3 weeks.
The Slc7a1-expressing human fibroblast cells were seeded at 1×10^5 cells/well of a 6 well plate on the day 1. On day 2, 0.25 ml of each retroviral supernatant was added to the cells in the presence of 6 μg/ml polybrene. A second round of transduction was done on day 3. Infection efficiency was estimated by fluorescence microscopy on cells transduced in parallel with GFP or RFP gene-carrying retroviruses. Seven days after initial transduction, fibroblasts were harvested by trypsinization and re-plated at 1×10^4 cells/well of a 6 well plate coated with matrigel (1:50 dilution, cat 354234, BD Biosciences). For compound treatment, the cells were cultured in human reprogramming medium (DMEM/F12, 20% Knockout serum replacer, lx MEM Non-Essential amino acid, lx glutamax, 0.11 mM 2-Mercaptoethanol, 20 ng/ml bFGF and 1,000 U/ml LIF) and were treated with 2 μM SB431542 (Stemgent), 0.5 μM PD0325901 (Stemgent), or combinations of the compounds. The media were changed every 2-3 days depending on the cell density. Seven days after compound treatment, either the plates were fixed and stained for Alkaline phosphatase (ALP) activity, or stained for protein markers, or the cultures were continued with or without indicated splitting by trypsinization till day 30. For split cultures, the cells were split (1:4) and re-plated onto irradiated CF-1 MEF feeder layer (2.5×10^5 cells/well) in each well of 6 well plate and were split (1:10) again on day 21. The cells were maintained in the same media and compound cocktail described above except for the concentrations of PD0325901 (0.5 μM for D14 and 1 μM for D21) and SB431542 (0.5-1 μM after D14). The iPSC colonies were subsequently maintained in conventional hESC media in the absence of the above compounds.
Alkaline phosphatase staining was performed using ALP detection kit (cat no: SCR004, Chemicon) according to the product instructions. For immunocytochemistry, cells were fixed in 4% paraformaldehyde (10 min, RT), washed twice with PBS, blocked using 5% normal donkey serum (Chemicon) and 0.1% TritonX-100 (15 min, RT) and then treated with primary antibodies overnight at 4° C. The primary antibodies used were anti-NANOG (cat no: AB9220, Chemicon, 1:1,000); anti-OCT4 (cat no: sc-5279, Santa Cruz biotech, 1:200), anti-SSEA 4 (cat no: mab4304, Chemicon, 1:500), anti-Tra-1-81 (cat 560123, BD Biosciences, 1:100), anti-Tra-1-81 (mAb 4381, Chemicon, 1:500), anti-βIII TUBULIN (cat no: MMS-435P, Covance Research Products Inc, 1:1000), anti-PDX 1 (1:500) (a kind gift from Dr. C. Wright), anti-BRACHYURY (cat No: AF2085, R & D, final concentration 0.2 μg/ml). The cells were washed twice with PBS and then treated with secondary antibodies for 1 hour at room temperature. The secondary antibodies used were Alexa fluor 488 donkey anti-rabbit or anti-mouse IgG (Invitrogen, 1:1,000) and Alexa fluor 555 donkey anti-rabbit or anti-mouse IgG (Invitrogen, 1:1,000). Nuclei were stained with 0.5 μg/ml DAPI (Sigma). Images were captured using a Nikon Eclipse TE2000-U/X-cite 120 EXFO microscope with a photometric CoolSnap HQ2 camera.
We tested the TGFβ receptor inhibitor (SB431542), MEK inhibitor (PD0325901) and GSK-3 inhibitor (CHIR99021), on human fibroblast crl2097 that were retrovirally transduced with Oct4, Klf4, Sox2 and c-Myc, for their effects on reprogramming kinetics and efficiency. Conditions are the same as set forth in Example 5. Data were collected 8 days after compound treatment.

OG2 MEFs = assay: Reprogramming of OG2 MEFs retrovirally transduced with OSKM or OSK (EGFP positive colonies); format: cell-based, mouse; settings: 2 μM SB431542, 5 μM CHIR99021, 0.1 μM PD0325901
Method: MEFs were derived from OG2 mice according to the protocol reported on WiCell Research Institute website: “Introduction to human embryonic stem cell culture methods”. OG2 transgenic mice carry both GFP under the control of the Oct4 promoter. MEFs were transduced with either (1) Oct4, Klf4, Sox2 and c-Myc; or (2) Oct4, Klf4, and Sox2 as described (Takahashi & Yamanaka, Cell. 2006; 126:663-676). […] Transduced MEFs were then treated with chemicals or chemical combinations, including GSK-3 inhibitor CHIR99021 (5 μM), TGFβ receptor inhibitor SB431542 (2 μM), MEK inhibitor PD0325901 (0.1 μM) for 11 days (for Oct4, Klf4, Sox2 and c-Myc transduced MEFs) or 13 days (for Oct4, Klf4 and Sox2 transduced MEFs), and EGFP positive colonies were counted.

mouse fibroblasts = assay: Reprogramming of mouse fibroblasts with exogenous poly-Arg transcription factor proteins; format: cell-based; settings: cells incubated with transcription factor proteins plus agent
Method: Mouse fibroblasts were grown in mESC medium supplemented with 8 μg/ml of either Oct4/Sox2/Klf4 or Oct4/Sox2/Klf4/Myc (all proteins comprising poly-Arg as described above) for 6-8 hours, washed, and incubated for 2-3 days in mESC media without the above-listed transcription factors. This (4-12 hours with, 1-3 days without) was repeated a number (1, 2, 3, 4, or more) of times and then the cells were cultured in mESC for two weeks.
Mouse fibroblasts were grown in mESC growth medium [Knockout DMEM (Invitrogen) supplemented with 10% ES-FBS+10% KSR, 0.1 mM 2-ME, 1% Glutamax, 1% Non-essential amino acids, 1% EmbryoMax ESC Qualified Nucleosides (Millipore), and 10^3 units/ml LIF (ESGRO, Chemicon International)] supplemented with 8 μg/ml of Oct4/Sox2/Klf4/Myc (all four transcription factors are tagged with poly-Arg […]; SEQ ID NO:2) for 4-12 hours, followed by culturing the cells in the absence of the Oct4/Sox2/Klf4/Myc polypeptides for one day. This procedure was repeated 4 times. The cells were then cultured in mESC medium for another two weeks. iPSC clones were detected by colony morphology and expression of pluripotency markers. An intermediate iPSC clone, which expresses ALP but not Oct4 (Oct4), was dissociated with Trypsin-EDTA. The clone was then expanded by continuous culturing with regular mESC medium or medium supplemented with 0.5 μM PD0325901, 3 μM CHIR99021, 0.5 μM A-83-01. The number of Oct4-positive colonies were counted 2 weeks after small molecule treatment (FIG. 14).

## COC(=O)C1=C(C)NC(C)=C([N+](=O)[O-])C1c1ccccc1C(F)(F)F (stereo not shown) [BayK8644]
OG2+/-/ROSA26+/- MEFs
  SOX2 expression: does not induce SOX2 expression
mES R1 cells
  proliferation of mES cells (cell number): does not lead to a change in proliferation
[1]; OG2 MEFs transduced with OK, FIG. 3
  reprogramming efficiency (GFP+ colonies): did not increase reprogramming efficiency above OK-transduced MEF control
[1]; in the absence of BIX
  reprogramming activity on OK-transduced MEFs: no observable reprogramming activity on OK-transduced MEFs in the absence of BIX

## CC(C)C[C@H](NC(=O)OCC1c2ccccc2-c2ccccc21)C(=O)O [Fmoc-Leu]
Cellular reprogramming; used at 5 μM
  cellular reprogramming: can enhance cellular reprogramming

## NC(=O)c1ccc(-c2nc(-c3ccc4c(c3)OCO4)c(-c3ccccn3)[nH]2)cc1 [SB431542]
[2]; 4TFs transduced fibroblasts, 7 days after compound treatment, SB431542 at 2 μM
  ALP+ colonies with hESC-like morphology (FIG. 7A): yielded colonies with hESC-like morphology as early as 7 days after compound treatment
[2]; 30 days
  number of granulate (partially reprogrammed) colonies: outnumbered by several fold the few hESC-like colonies
[2]; FIG. 7
  dose dependence of effect on reprogramming: dose dependent
[2]; day 7 post-treatment (D14), SB431542 2 μM, PD0325901 0.5 μM, 1×10^4 cells
  ALP+ colonies with characteristic hESC-like morphology: 1-2 colonies
OG2 MEFs; Oct4, Klf4, Sox2 and c-Myc transduced MEFs, 11-day treatment
  reprogramming efficiency: ~1.8%
OG2 MEFs; Oct4, Klf4, and Sox2 transduced MEFs, 13-day treatment
  reprogramming efficiency: ~1.2%
Mouse fibroblasts
  efficiency and speed of development of pluripotent cells: improved efficiency and speed of development of pluripotent cells

## C=C(c1ccc(C(=O)O)cc1)c1cc2c(cc1C)C(C)(C)CCC2(C)C [Bexarotene]
Cellular reprogramming; at 3 μM
  cellular reprogramming: can enhance cellular reprogramming
